Results reported in patent US4618681A, “Aryl substituted 1H-4,5-dihydro-1,2,3-triazoles as anticonvulsants” (priority 1984, dated 1986).
“Also recorded” adds a separate entry of the source. Where two headings read alike, the source gives them in different places.

What was measured:
[1] = mouse, in vivo
Experimental: (§1) All animals were allowed free access to both food (S/L Custom Lab Diet-7) and water, except when they were removed from their cages for the experimental procedure.
(§2) The drugs were administered either orally or intraperitoneally in a volume of 0.01 ml/g body weight in mice and 0.04 ml/10 g in rats. All tests were conducted at the previously determined time of peak drug effect.
(§3) The profile of anticonvulsant activity for each substance was established by five tests: one electrical and four chemical. The electrical test employed was the maximal electroshock seizure pattern test. […] Except for the sc Strych Test, these tests measure the ability of anticonvulsants to afford complete protection against threshold seizures induced by the subcutaneous injection of the CD97 of the convulsant agent.
(§4) All convulsants were administered subcutaneously into a loose fold of skin on the back of the neck in a volume of 0.01 ml/g body weight in mice; Metrazol was injected in a volume of 0.02 ml/10 g body weight in rats. The convulsant drugs were administered at the previously determined time of peak anticonvulsant action of the drug under study. […] Except for strychnine, absence of a five-second episode of clonic spasms (threshold seizure) was taken as protection. In the case of strychnine, complete abolition of the hindleg tonic extension was taken as protection.

[2] = set-up: species or system mice; settings: mouse, in vivo, ip, 1132 mg/kg
Experimental: Consequently, it was necessary to administer the high doses required for the righting reflex and 24-hour lethality tests in mice in double the volume. In view of this fact, additional studies were done to determine the effect of this double volume on the time of peak effect of the test substance. […] […]. Moreover, 1, 3, and 4 of the 8 mice were dead at 20, 40, and 46 hours, respectively. […] Accordingly, additional pharmacokinetic and pharmacodynamic studies will be done in order to reveal mechanisms that may contribute to the long TPE for neurotoxicity and the abnormally low ratio between the minimal-toxic dose and the 24-hour lethal dose.

[3] = Phase III Toxicity Profile in mice i.p. (overt signs of toxicity); assay type: in vivo
Description: […]. […] […]. […] […].

in vivo [4] = settings: mouse, in vivo; for selectivity ratio: mice, i.p.
Experimental: (§5) The profile of toxicity for each test drug was established by the following procedures: firstly, the minimal neurotoxic dose (TD50) was determined by the rotorod procedure at the time of peak neurotoxic effect. When a normal mouse is placed on a knurled rod one inch in diameter rotating at a speed of six rpm it can maintain its equilibrium for long periods of time. Neurological deficit is indicated by inability of the mouse to maintain its equilibrium for one minute in each of three trials on this rotating rod. Neurological deficit in rats is indicated by ataxia, loss of placing response and muscle tone. […] These observations also provide preliminary information essential for the subsequent determination of the HD50 and LD50. The HD50 represents the median dose at which 50% of animals lose their righting reflex.

in vivo [5] = settings: mouse
Experimental: as §2, §5

[6] = mouse, in vivo; remark: listed apart in the source
Experimental: as §2, §5

[7] = assay type: in vivo; settings: Phase V, mice, i.p.
Experimental: as §3, §4

[8] = Time of peak effect (TPE) over several tests in rats; settings: p.o., Compound 9: toxicity, MES and sc Met tests
Experimental: as §2

[9] = Time of peak effect (TPE) over several tests in mice
Experimental: as §2

in vivo [10] = assay: in vivo; set-up: species or system mice; settings: mouse, in vivo, ip
Experimental: as §5

[11] = Maximal electroshock seizure (MES) pattern test in rats; assay type: in vivo, rats (male albino, Sprague Dawley)
Experimental: as §1, §2, §3

[12] = Phase I anticonvulsant screening (MES and scMet tests); settings: in words
[13] = not given; remark: listed apart in the source
in vivo [14] = settings: rat, po
Experimental: as §2, §5

[15] = Subcutaneous Metrazol Seizure Threshold Test (sc Met) in rats; assay type: in vivo, rats (male albino, Sprague Dawley)
Experimental: as §2, §3, §4

[16] = Subcutaneous Metrazol Seizure Threshold Test (sc Met) in mice; settings: for ED50: Mus musculus
Experimental: as §1, §2, §3, §4

[17] = not given; remark: listed apart in the source
[18] = Oral absorption in mice (oral/i.p. ratios); assay type: in vivo
Description: The extent of oral absorption can be determined from the ratio of the oral ED50/i.p. […] In mice the oral TD50/i.p. TD50 and oral ED50/i.p.

[19] = not given; remark: listed apart in the source
[20] = 300 mg/kg, four hours after administration
[21] = mice, i.p., from safety ratio TD3/ED97

Clc1ccc(N2N=NCC2c2ccncc2)cc1 (stereo not drawn) [Compound 9, 1-(p-Chlorophenyl)-5-(4-pyridyl)-Δ^2-1,2,3-triazoline]
oral ED50/i.p. ED50, sc Met [1]: 3.50
P.I. by the scMet test ([1]; po): 4.62
P.I. derived from the sc Met test ([1]; sc): high
gross examination of the peritoneal cavity [2]: an unevacuated stomach that was approximately three times normal size; an empty, flaccid small intestine; and a vermiform appendix markedly enlarged from flatus
P.I. by the sc Pic test compared with phenobarbital, ethosuximide and valproate (Phase V, mice, i.p.): compares favorably with those for phenobarbital, ethosuximide, and valproate
effectiveness by the sc Pic test (Phase V, mice, i.p.): lesser effectiveness by the sc Pic test
selectivity (slope of regression line), sc Pic test (in words): lack of selectivity (flat regression lines)
toxicity profile ([3]; mice, i.p., 1TD50, 2TD50's and 4TD50's): decreased motor activity, ataxia, decreased respiration and cyanosis
toxicity at the end of 24 hours ([3]; mice, i.p., 2TD50's): One of two animals given 2TD50's was still ataxic and cyanotic at the end of 24 hours
dead 24 hours after drug administration ([3]; mice, i.p., 4TD50's): Both mice given 4TD50's of Compound 9 were dead 24 hours after drug administration
rotorod toxicity ([3]; mouse, in vivo, ip): one of two animals given 4TD50's displayed rotorod toxicity
selectivity (slope of regression line), 24-hour lethality (in vivo [4]): lack of selectivity (flat regression lines)
margin between the minimal toxic dose and the 24-hour lethal dose (in vivo [4]; ip): probably not satisfactory
selectivity ratio (in vivo [4]; ip, 24-hour LD50, rotorod TD50, read-out: Ratio LD50/TD50): 1.88
selectivity ratio (in vivo [4]; ip, 24-hour LD50, read-out: Ratio LD50/HD50): 1.04
LD50 at 24 h (in vivo [4]; ip, read-out: LD50 (lethality)): 2130 mg/kg
selectivity ratio (in vivo [5]): 0.62
TD50 (in vivo [5]; ip): 1130 mg/kg
TD50 (in vivo [5]; po): 705 mg/kg
TPE (rotorod) ([6]; ip): 12 and 20
TPE by the rotorod test ([6]; po): 24 h
deaths ([6]; po, 600 mg/kg): 1 of 8
deaths (of 8) ([6]; po, 700 mg/kg): 6
deaths ([6]; po, 800 mg/kg): 1 of 8
deaths ([6]; po, 1000 mg/kg): 4 of 8
effectiveness by the sc Strych test [7]: not effective against sc Strych; also recorded: ineffective after i.p. administration in mice by the sc Strych test
TPE [8]: six
TPE by the anticonvulsant tests ([9]; p.o.): one-half
TPE after oral compared with intraperitoneal administration ([9]; p.o. vs i.p.): significantly different from that obtained after intraperitoneal administration
Slope, regression line, HD50 (righting reflex) (in vivo [10]): 4.27
TD50 (in vivo [10]): 2050 mg/kg
Time of Test / time of peak toxicity, righting reflex (in vivo [10]): 24 h
ED50 ([11]; Rattus norvegicus, po, rats): 266 mg/kg
anticonvulsant potency by MES, rats compared with mice ([11]; oral administration): no significant difference in the anticonvulsant potency
97% protection in nontoxic doses, MES ([11]; rats, p.o.): do not provide 97% protection
anticonvulsant potency [12]: most potent
neurotoxicity, rats compared with mice ([13]; rat, in vivo, po): significantly more neurotoxic in rats than it is in mice
toxicity relative to phenobarbital ([13]; rats, p.o.): one-fifth to one-sixth
TD50 (in vivo [14]): 394 mg/kg
ED50 ([15]; Rattus norvegicus, po, rats, p.o., read-out: ED50 sc Met): 278 mg/kg
anticonvulsant potency by sc Met, rats compared with mice ([15]; oral administration): no significant difference in the anticonvulsant potency
97% protection in nontoxic doses, sc Met ([15]; rats, p.o.): do not provide 97% protection
anti-Metrazol activity [16, 20]: anti-Metrazol activity was present
ED50 ([16]; ip, read-out: ED50 sc Met): 43.5 mg/kg
ED50 ([16]; po, read-out: ED50 scMet): 153 mg/kg
effectiveness by the sc Met test ([16]; Phase V, mice, i.p.): effective against sc Met, sc Bic, and sc Pic in nontoxic doses
safety ratio TD3/ED97, sc Met ([16]; mice): 3.44
Protective Index (P.I.) = TD50/ED50, sc Met ([16]; mice, i.p.): 26.02
Time of Test / time of peak effect (TPE), sc Met ([16]; mice, i.p.): 1/2
mice protected, sc Met, nontoxic doses [16, 21]: 97%
24-hour LD50/ED50 safety ratio by the sc Met test ([16]; mice, in words): high
profile of anticonvulsant activity, Metrazol ([16]; nontoxic doses): elevate the Metrazol seizure threshold in nontoxic doses
activity by the MES test [17, 20]: ineffective by the MES test (although the tonic extension was slow)
ED50 MES ([17]; mice, i.p.): 257.42 mg/kg
Protective Index (P.I.) = TD50/ED50, MES ([17]; mice, i.p.): 4.40
Time of Test / time of peak effect (TPE), MES ([17]; mice, i.p.): 1/2
mice protected, MES, nontoxic doses [17, 21]: 97%
ED50 MES ([17]; mice, p.o.): 290.72 mg/kg
potency relative to phenobarbital, MES ([17]; mice, p.o.): 1/15
potency relative to phenytoin, MES ([17]; mice, p.o.): 1/32
97% protection in nontoxic doses, oral ([17]; mice, p.o., MES): the same level of protection is obtained only in mice subjected to the MES test
oral ED50/i.p. ED50, MES ([17]; mouse, in vivo): 1.13
safety ratio TD3/ED97, MES ([17]; mouse, in vivo): 1.13
P.I. by the MES test ([17]; mouse, in vivo, po): 2.42
profile of anticonvulsant activity, electroshock ([17]; nontoxic doses): ability to modify maximal electroshock seizure pattern
absorption after oral administration [18]: adequately absorbed in mice after oral administration
P.I. against sc Bic, times higher than that for phenobarbital ([19]; Phase V, mice, i.p.): fifty
effectiveness by the sc Bic test ([19]; Phase V, mice, i.p.): effective against sc Met, sc Bic, and sc Pic in nontoxic doses
P.I. derived from the sc Bic test ([19]; in words): high
